Patent US20090061022A1, “Pharmaceutical composition comprising arsenite for the treatment of malignancy” (priority 2004, published 2009)
“And” between values parts separate entries of the source, which are not always exact repeats. Identical values can stand only once.

What was measured:
[1] = tested on: panel of 12 human cancer cell lines; assay: Cytotoxic activity, whole panel of 12 human cancer cell lines, modified propidium iodide assay; conditions: panel of 12 human cancer cell lines, 4 days
Experimental: (§1) Nine kinds of human cancer cell lines out of six kinds of cancers were grown at 37° C. under a controlled atmosphere of 95% air and 5% CO2. The cells were grown on monolayer cultures of RPMI 1640 cell culture medium supplemented with 10% fetal calf serum.
(§2) The grown cells were harvested from exponential phase cultures by trypsinization and counted. The counted cells were placed in a plate, which has ninety six wells. Each well on the plate is in a shape of a flat-bottomed microtitre. Density of the cells in a suspension was adjusted depending on the cell line. The suspension was prepared by diluting the grown cells with the culture medium (RPMI 1640). Concentration of the cells were varied from 5×10^4 to 1×10^5 viable cells/ml. 100 μl of the suspension was placed in each well of the plate. […] Then add 50 μl of culture medium (RPMI 1640) only to 6 wells, 50 μl/well, among the 96 wells of one plate. It is called controlled. One well is filled with culture medium plus 5-FU. And another 50 μl of culture medium plus one of the stock solutions were added to each of the left 89 wells to allow cells to resume exponential growth.
(§3) In a further study, the cytotoxic activity profile of sodium meta-arsenite and arsenic acid sodium salt was investigated in different panels containing twelve (12) human cancer cell lines from eight (8) kinds of human cancers. The cancer cell samples were prepared as described in 1-1-B. Propidium iodide fluorescence assay method for this test was modified as the follows.

RXF 944LX [2] = assay: Anticancer activity in RXF 944LX cancer bearing nude mice, intermittent and daily schedules; conditions: for MTD: i.p., RXF 944LX
Experimental: (§4) Cancer fragments (1-2 mm in diameter), obtained from xenografts in serial passage in nude mice, were implanted subcutaneously (S.C.) in a flank of male NRMI nude mice (one fragment per mouse). Mice with appropriate cancer volumes (5-7 mm in diameter) were randomly distributed to treatment and control groups (4 mice/group). The start of treatment was day 0. Cancer volume and body weights were measured at least twice per week.
(§5) The cancer volume of each animal was determined by two-dimensional measurement using calipers. The volume was calculated according to the formula: (a×b^2)×0.5; wherein a and b represent two perpendicular diameters in which a (length) is the larger diameter and b (width) the smaller diameter.
(§6) Relative cancer volumes (RCV) were calculated for each individual cancer by dividing the cancer volume on day X by the cancer volume on day 0 multiplied by 100%. The cancer volume of a treatment group was expressed as the median RCV of all mice of the group. Median RCV values were used for drawing growth curves and treatment evaluation. Optimal cancer growth inhibition at a particular day within the treatment period was calculated from the median RCV values of the treated (T) versus the controlled (C) group multiplied by 100%. A T/C value<50% was considered as anti-cancer activity.
In the experiment with renal cancer RXF 944LX, the anticancer activity of the compounds was explored using two administration schedules; 1) intermittent schedule of 4 days×3, and 2) a daily schedule for 2 weeks (days 0-4, 7-11).
The dose levels chosen for sodium meta-arsenite and arsenic acid sodium salt in these schedules were based on the experience in the 1st experiment. Additional small dose finding studies were executed.

[3] = tested on: panel of 9 human cancer cell lines; assay: Cytotoxic activity, whole panel of 9 human cancer cell lines (means, active/total); assay type: cell-based
Experimental: Three kinds of stock solutions were prepared for in vitro cytotoxic activity test. The first solution is DMSO (dimethyl sulfoxide) mixed with sodium meta-arsenite. […] The third solution is DMSO mixed with arsenic acid sodium salt. Those three solutions were diluted with culture medium (RPMI 1640). The final concentrations of DMSO in those three solutions are less than 0.3 vol %.
as §1
as §2, with “1640).” for “1640). Concentration of the cells were varied from 5×10^4 to 1×10^5 viable cells/ml. 100 μl of the suspension was placed in each well of the plate.”
The cytotoxic activity test was executed with three plates simultaneously to check reliability of the data obtained. The three plates contain the same samples of cancer cells. The three plates were then incubated for 3-7 days under the same controlled atmosphere and cell proliferation was assessed with a modified propodium iodide fluorescence assay. After thawing of the plates, fluorescence was measured using a Millipore Cytofluor 2350-microplate reader (excitation 530 nm emission 620 nm) in order to quantify the total cell number. The assay included untreated and positive controls containing 5-FU.
Growth inhibition is defined as (numbers of cancer cell alive) treated (T)/(number of cells) control (C)×100% (T/C %).

GXF 251L (gastric) = conditions: resistant
Experimental: as §1, §2, §3

RXF393NL (renal) = conditions: resistant
Experimental: as §1, §2, §3

LXFA 629L = LXFA 629L non-small cell lung; resistant
Experimental: as §1, §2, §3

LXFE 66NL = LXFE 66NL non-small cell lung; resistant
Experimental: as §1, §2, §3

RXF 944LX [4] = assay: Dose finding study in human renal cancer model RXF 944LX in nude mice (i.p. days 0, 7, 14)
Text: In a dose finding study, the potential anticancer activity of sodium meta-arsenite and arsenic acid sodium salt versus arsenic trioxide was examined in the human renal cancer model, RXF 944LX.
as §4
1) Sodium meta-arsenite (3, 10, 30 mg/kg/day), 2) Arsenic acid sodium salt (3, 10, 30 mg/kg/day) and 3) Arsenic trioxide (3, 10, 30 mg/kg/day) were administered intraperitoneally (i.p.) once daily on days 0, 7 and 14.
Stock solution of sodium meta-arsenite and arsenic acid sodium salt (3 mg/ml) were prepared in 5% (w/v) dextrose solution, respectively, to minimize acute arsenic toxicity. For arsenic trioxide, 9 mg of arsenic trioxide was dissolved in 1M NaOH (75 μl) followed by mixing with sterile aqua injectabilia (2175 μl) and sterile 20% (w/v) dextrose in water (500 μl). Further dilution to the desired concentration was done with a 5% dextrose solution to give a final concentration of 3 mg/ml.
as §5, §6

[5] = 32 mg/kg i.p., days 0-4, 7, 14-18
[6] = mean over human cancer cell lines tested (9 line panel)

arsenic acid sodium salt was tested, and the “Mean IC50” value [1] was 25.5 µg/mL, the “Mean IC90” value [1] was 76.6 µg/mL and the “Mean IC70” value ([1]; sodium salt) was 40.1 μg/ml and 129 μM. For the same substance, the IC50 ([1]; read-out: Mean IC50) was 82 µM, the IC90 ([1]; read-out: Mean IC90) was 246 µM and the “BW loss % (day)” value (RXF 944LX [2]; 16 mg/kg i.p., days 0-4, 7-11) was −8 (14) %. For the same substance, the Drug-related deaths (RXF 944LX [2]; 16 mg/kg i.p., days 0-4, 7-11) was 2/6, the “SGD (specific growth delay)” value (RXF 944LX [2]; 16 mg/kg i.p., days 0-4, 7-11) was 0 and the T/C % (RXF 944LX [2]; 16 mg/kg i.p., days 0-4, 7-11) was 76%. The “BW loss % (day)” value (RXF 944LX [2]; 30 mg/kg i.p., days 0, 4, 8) was “+25 (14) %”, the Drug-related deaths (RXF 944LX [2]; 30 mg/kg i.p., days 0, 4, 8) was 1/6 and the “SGD (specific growth delay)” value (RXF 944LX [2]; 30 mg/kg i.p., days 0, 4, 8) was −0.2. The T/C % (RXF 944LX [2]; 30 mg/kg i.p., days 0, 4, 8) was 100%, the “BW loss % (day)” value (RXF 944LX [2]; [5]) was −10 (14) % and the Drug-related deaths (RXF 944LX [2]; [5]) was 3/6. For the same substance, the “BW loss % (day)” value (RXF 944LX [2]; 45 mg/kg i.p., days 0, 4, 8) was “+22 (14) %”, the Drug-related deaths (RXF 944LX [2]; 45 mg/kg i.p., days 0, 4, 8) was 2/6 and the “SGD (specific growth delay)” value (RXF 944LX [2]; 45 mg/kg i.p., days 0, 4, 8) was −0.3. For the same substance, the T/C % (RXF 944LX [2]; 45 mg/kg i.p., days 0, 4, 8) was 100%, the MTD (RXF 944LX [2]; daily schedule (days 0-4, 7-11)) was 16 mg/kg/day and the MTD (RXF 944LX [2]; intermittent schedule (4 days×3)) was 45 mg/kg/day. The “Assessment from comparison of the IC50 values” ([3]; 9 cell line panel) was “inactive”, the IC50 [3, 6] was 99 µM and the IC90 [3, 6] was 248 µM. The “Mean IC50” value [3, 6] was 30.8 µg/mL, the “Mean IC90” value [3, 6] was 77.5 µg/mL and the “Mean IC70” value ([3]; mean over human cancer cell lines tested (9 line panel), sodium salt) was 44.7 μg/ml and 143 μM. It also gave an IC70 (GXF 251L (gastric)) greater than 100 µg/mL, an IC70 (RXF393NL (renal)) greater than 100 µg/mL and an IC70 (LXFA 629L) greater than 100 µg/mL. For the same substance, the IC70 (LXFE 66NL) was greater than 100 µg/mL, the “BW loss % (day)” value (RXF 944LX [4]; 3 mg/kg i.p., days 0, 7, 14) was “+15 (21) %” and the Drug-related deaths (RXF 944LX [4]; 3 mg/kg i.p., days 0, 7, 14) was 0/4. The Rating (RXF 944LX [4]; 3 mg/kg i.p., days 0, 7, 14) was “− (−T/C ≧ 50%)”, the “SGD (specific growth delay)” value (RXF 944LX [4]; 3 mg/kg i.p., days 0, 7, 14) was −0.5 and the T/C % (RXF 944LX [4]; 3 mg/kg i.p., days 0, 7, 14) was 90%. The “BW loss % (day)” value (RXF 944LX [4]; 10 mg/kg i.p., days 0, 7, 14) was “+10 (21) %”, the Drug-related deaths (RXF 944LX [4]; 10 mg/kg i.p., days 0, 7, 14) was 0/4 and the Rating (RXF 944LX [4]; 10 mg/kg i.p., days 0, 7, 14) was “− (−T/C ≧ 50%)”. For the same substance, the “SGD (specific growth delay)” value (RXF 944LX [4]; 10 mg/kg i.p., days 0, 7, 14) was −0.2, the T/C % (RXF 944LX [4]; 10 mg/kg i.p., days 0, 7, 14) was 74% and the “BW loss % (day)” value (RXF 944LX [4]; 30 mg/kg i.p., days 0, 7, 14) was “+14 (21) %”. For the same substance, the Drug-related deaths (RXF 944LX [4]; 30 mg/kg i.p., days 0, 7, 14) was 0/4, the Rating (RXF 944LX [4]; 30 mg/kg i.p., days 0, 7, 14) was “− (−T/C ≧ 50%)” and the “SGD (specific growth delay)” value (RXF 944LX [4]; 30 mg/kg i.p., days 0, 7, 14) was 0.1. The T/C % (RXF 944LX [4]; 30 mg/kg i.p., days 0, 7, 14) was 88%, the “T/C values of the 3 treatment groups” value (RXF 944LX [4]; 3, 10, 30 mg/kg/day i.p., days 0, 7, 14) was “greater than 74%” and the “Maximum Tolerated Dose (MTD)” value (RXF 944LX [4]; i.p. once daily on days 0, 7 and 14, RXF 944LX bearing nude mice) was “greater than 30 mg/kg/day”.
